Source: patent US20150299250A1, “MACROCYCLIC COMPOUNDS AND USES THEREOF” (ADELAIDE RESEARCH & INNOVATION PTY LTD, priority 2012, published 2015)
Read-outs that look alike come from different tables or passages of the source. Where a SMILES comes first, the peptide text is derived from it. The star is where a group is joined. Cbz = O=C(OCc1ccccc1)*

Legend:
[1] = molecular target: T1, 20S proteasome chymotrypsin-like (CT-L) activity (Oryctolagus cuniculus, UniProt G1T4Q9); experiment: In vitro proteasome activity assay, CT-L (Suc-LLVY-AMC); assay type: biochemical, rabbit; conditions: for IC50: purified 20S proteasome
T1 sequence (G1T4Q9 1-263): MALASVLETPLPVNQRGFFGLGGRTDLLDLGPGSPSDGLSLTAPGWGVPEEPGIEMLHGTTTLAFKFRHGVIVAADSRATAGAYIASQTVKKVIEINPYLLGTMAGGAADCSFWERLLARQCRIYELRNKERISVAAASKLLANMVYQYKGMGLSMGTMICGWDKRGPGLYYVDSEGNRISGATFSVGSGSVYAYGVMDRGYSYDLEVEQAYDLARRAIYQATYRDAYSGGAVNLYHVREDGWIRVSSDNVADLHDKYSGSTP
Description: (§1) The assays were performed in vitro using purified 20S proteasome/inhibitor mixtures, with the activity of each subunit of the proteasome assessed upon incubation with its respective target peptide.
(§2) Purified rabbit 20S proteasome and fluorogenic CT-L substrate (Suc-LLVY-AMC) were purchased from Boston Biochem (Cambridge, Mass., USA). The T-L and CP-L fluorogenic substrates (Ac-RLR-AMC and Z-nLPnLD-AMC) were purchased from Enzo Life Sciences (Farmingdale, N.Y., USA). The 20S proteasome was diluted to 0.2 μg/μL in 20S proteasome buffer (50 mM HEPES pH 7.6, 150 mM NaCl and 1 mM DDT) and stored at −80° C. Purified 20S proteasome (8 ng) was pre-incubated with the indicated concentrations of inhibitors for 15 minutes and subsequently added to the AMC-labeled substrate peptide (50 μM) in assay buffer (25 mM HEPES, pH 7.5, 0.5 mM EDTA, 0.05% NP-40, and 0.001% SDS (w/v)) at 37° C. for 2 hours.

[2] = molecular target: T2, 20S proteasome T-L activity (Oryctolagus cuniculus, UniProt G1SWK8); experiment: In vitro proteasome activity assay, T-L (Ac-RLR-AMC); assay type: biochemical, rabbit; conditions: purified 20S proteasome; highest concentration tested 25,000 nM
T2 construct: purchased Boston Biochem
T2 sequence (G1SWK8 1-271): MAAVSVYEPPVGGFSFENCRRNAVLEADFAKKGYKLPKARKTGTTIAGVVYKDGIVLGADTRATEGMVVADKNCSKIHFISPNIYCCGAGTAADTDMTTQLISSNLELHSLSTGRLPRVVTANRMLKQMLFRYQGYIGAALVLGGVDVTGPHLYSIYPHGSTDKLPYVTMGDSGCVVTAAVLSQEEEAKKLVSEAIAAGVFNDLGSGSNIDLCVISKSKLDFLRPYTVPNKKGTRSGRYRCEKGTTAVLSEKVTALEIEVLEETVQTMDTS
Description: as §1, §2

[3] = system: WE-68 Ewing's sarcoma cells; experiment: Cell viability assay (7AAD, 48 hours), WE-68; assay type: cell-based; conditions: 48 hours exposure; read-out: Cancer cell lines IC50 (μM) WE-68
Description: (§3) Cell viability assays were performed as previously described. Briefly, cells were seeded in 96 well microtiterplates at a density of 3×10^4 cells per well in the presence of the indicated chemical. Cells were harvested 48 hours post-treatment, centrifuged at 1,300×g, washed in phosphate-buffered saline (PBS) and stained with 7AAD solution (2 μg/mL) (7-amino-actinomycin-D, Invitrogen, Carlsbad, Calif.) for 10 mins at room temperature. Viable cells were determined with the use of a FACS Calibur flow cytometer (Becton Dickinson Immunocytometry Systems), and analyzed with the use of FLOWJO (Tree Star, Inc) and GraphPad Prism (GraphPad Software Inc).
(§4) WE-68 and VH-64 Ewing's sarcoma cells were kindly supplied by F. van Valen (Department of Orthopaedic Surgery, Westfalische-Wilhelms-University, Germany).TC-252 and STA-ET-1 Ewing's sarcoma cells were kindly provided by G. Hamilton (Department of Surgery, University of Vienna, Austria) or P. Ambros (Children's Cancer Research Institute, St Anna Children's Hospital, Vienna, Austria). Primary human embryonic fibroblasts or primary human osteoblasts were collected from the Women's and Children's Hospital (North Adelaide, South Australia, Australia) or Royal Adelaide Hospital with patient consent. Mouse Embryonic Fibroblasts (MEFs) and its p53-null derivative were kindly supplied by Guillermina Lozano (Department of Genetics, Anderson Cancer Centre, University of Texas, Houston, Tex., USA). WE-68 cell lines were grown in RPMI-1640 media, whilst human embryonic fibroblasts and MEFs were grown in Dulbecco's Modified Eagle's Medium (DMEM). Media was supplemented with 10% FCS, 1% PSG and 10 mM HEPES. All cells were maintained at 37° C. in a humidified atmosphere of 5% CO2.

[4] = system: primary human osteoblasts; experiment: Cell viability assay (7AAD, 48 hours), normal osteoblasts; assay type: cell-based; conditions: Osteoblast, 48 hours exposure, read-out: Normal cell lines IC50 (μM) Osteoblasts
Description: as §3, §4

[5] = system: MEF p53+/+ (mouse embryonic fibroblasts); experiment: Cell viability assay, MEF p53+/+; assay type: cell-based
From the text: Although proteasome inhibitors have been translated from the bench to the clinic over the past decade, their specific mechanisms of action remain poorly understood. As discussed earlier, proteasomal over-activity in tumor cells has been attributed to aberrant degradation of numerous critical cancer-related pro proteins, including the pro-apoptotic tumor suppressor, p53. However, the role of p53 as a downstream mediator of cell death in response to proteasomal inhibition remains unclear. Therefore, we used our small library of CT-L specific proteasome inhibitors (compounds 1-6) to determine the role of p53 in their mechanism of cytotoxic action. For this purpose, we utilized mouse embryonic fibroblasts (MEFs) from transgenic p53^+/+ and p53^−/− littermates. This isogenic pair of cell lines are either competent (MEF p53^+/+) or deficient (MEF p53^−/−) in p53 protein and are used here to assess a potential role for p53 as a downstream inducer of cell death in response to proteasomal inhibition.
as §3, §4

[6] = system: panel of sarcoma cell lines (WE-68, VH-64, STA-ET-1, TC-252); experiment: Cell viability assay, panel of four sarcoma cell lines (average); assay type: cell-based; conditions: for IC50: average of four sarcoma cell lines, read-out: Average IC50 for cancer cell lines; for Therapeutic window: fold change in potency (IC50) against cancer cell line versus normal cell line
Description: as §3, §4

[7] = system: normal cell lines (fibroblasts, osteoblasts); experiment: Cell viability assay, normal cell lines (average); assay type: cell-based; conditions: Homo sapiens; average of fibroblasts and osteoblasts
Description: as §3, §4

[8] = Mus musculus, Fibroblast; read-out: IC50 in MEF p53+/+

SMILES | IC50 [1] [nM] | IC50 [2] [nM] | IC50 [3] [µM] | IC50 [4] [µM] | IC50 [5, 8] [µM] | IC50 [6] [µM] | Therapeutic window [6] | IC50 [7] [µM] | increase in potency against CT-L relative to compound 4 (Leu at P2) [1] [fold] | more potency against cancer cells over normal cells [6] [fold] | MEF p53+/+ more sensitive compared to MEF p53-/- [5] | IC50 ([5]; Mus musculus, Fibroblast, read-out: IC50 in MEF p53+/+) [µM]
C#CCOc1ccc(C[C@@H](C=O)NC(=O)[C@H](CC(C)C)NC(=O)[C@H](CCN=[N+]=[N-])NC(=O)OCc2ccccc2)cc1 [Compound 2] | 355 | > 25000 | 4.7 | 13.6 | 2.7 to 10.3 | 4.3 | ×5.0 | 21.5 | – | – | – | –
C#CCOc1ccc(C[C@@H](C=O)NC(=O)[C@H](CC(C)C)NC(=O)[C@H](CCCN=[N+]=[N-])NC(=O)OCc2ccccc2)cc1 [Compound 3] | 54 | > 25000 | 0.47 | 18.8 | 2.7 to 10.3 | 1.6 | ×8.7 | 13.8 | – | – | – | –
C#CCOc1ccc(C[C@@H](C=O)NC(=O)[C@H](CC(C)C)NC(=O)[C@H](CCCCN=[N+]=[N-])NC(=O)OCc2ccccc2)cc1 [Compound 4] | 150 | > 25000 | 10.8 | 10.4 | 2.7 to 10.3 | 4.2 | ×5.9 | 25 | – | – | – | –
C#CCOc1ccc(C[C@@H](C=O)NC(=O)[C@@H](NC(=O)[C@H](CCCCN=[N+]=[N-])NC(=O)OCc2ccccc2)[C@@H](C)CC)cc1 [Compound 5] | 21 | > 25000 | 0.98 | 4.8 | 2.7 to 10.3 | 0.88 | ×14.1 | 12.4 | 7.5 | – | – | –
C#CCOc1ccc(C[C@@H](C=O)NC(=O)[C@H](CC(C)C)NC(=O)[C@H](Cc2ccc(N=[N+]=[N-])cc2)NC(=O)OCc2ccccc2)cc1 [Compound 6] | 23 | > 25000 | 1.1 | 11.6 | 2.7 to 10.3 | 1.5 | ×19.0 | 28.5 | – | 19 | – | –
CC(C)C[C@@H](C=O)NC(=O)[C@H](CC(C)C)NC(=O)[C@H](CC(C)C)NC(=O)OCc1ccccc1 [MG132, reference compound] (Cbz-Leu-Leu-Leu-aldehyde) | 1.2 | 2000 | 0.68 | 2.7 | – | 0.61 | ×4.5 | 2.8 | – | – | over 2 fold | 0.41
